Consider 24 compounds from patent US5043328A, “Formulations containing unsaturated fatty acids for the synthesis of prostaglandins and hydroxy-fatty acids in biological systems” (priority 1986, dated 1991).

Entries after “also recorded” stand apart in the source; their conditions may differ.

The first data set has as its target T1, enzyme (from seminal vesicles of sheep) (Ovis aries, UniProt P05979).
T1 sequence (P05979 25-600): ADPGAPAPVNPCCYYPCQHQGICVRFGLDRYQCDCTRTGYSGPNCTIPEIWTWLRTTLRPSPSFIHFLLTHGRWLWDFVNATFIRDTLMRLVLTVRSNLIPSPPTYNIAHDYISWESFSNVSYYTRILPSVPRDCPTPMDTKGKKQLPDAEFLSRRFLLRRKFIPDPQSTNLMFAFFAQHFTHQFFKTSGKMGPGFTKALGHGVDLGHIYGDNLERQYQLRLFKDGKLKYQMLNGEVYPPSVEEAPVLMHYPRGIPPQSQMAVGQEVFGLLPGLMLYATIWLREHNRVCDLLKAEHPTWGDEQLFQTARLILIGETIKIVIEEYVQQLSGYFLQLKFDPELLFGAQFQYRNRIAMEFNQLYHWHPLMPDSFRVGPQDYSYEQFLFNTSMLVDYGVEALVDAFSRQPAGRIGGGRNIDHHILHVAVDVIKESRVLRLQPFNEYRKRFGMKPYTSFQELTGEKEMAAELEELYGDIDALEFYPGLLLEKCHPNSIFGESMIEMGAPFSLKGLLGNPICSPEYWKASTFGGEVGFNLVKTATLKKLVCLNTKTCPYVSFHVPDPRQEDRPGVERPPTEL
Conditions: Table 1; 0.5 mg stimulator, 10 min 37° C.; without stimulator f=1. The method, then:
Method 2: Prostaglandin Synthesis
0.3 ml of 0.03M potassium phosphate buffer of pH=8.0 contains 0.5 mg of enzyme (from seminal vesicles of sheep) (Biochemistry 10 (1971) 2372) or homogenate of the inner kidney medulla (Life Sciences 26 (1980) 765), 2.75 μg of ^14 C-arachidonic acid (0.5 μCi) and 0.5 mg of stimulator, and, if appropriate, 0.5 mg of stabilizer substance (see Table 1). After 10 minutes' incubation at 37° C., the reaction is stopped with 0.05 ml of 1.2M citric acid and the mixture is extracted with twice 0.5 ml of ethyl acetate, the combined extracts are freed of solvent, and the residue is dissolved in 0.2 ml of methanol, diluted 1:1 with water and separated by HPLC (nucleosil C-18 column, 125×4.6 mm, from Bischoff, Leonberg, Germany, solvent 300 ml of acetonitrile, 700 ml of water and 1 ml of glacial acetic acid and after 30 minutes pure methanol). The separation of the radioactive fractions is followed by a monitor (LB 504 from Berthold, Wildbad, Germany). The products formed, such as 6-keto-prostaglandin F2alpha, prostaglandin E2, prostaglandin F2alpha and prostaglandin D2, are separated under these conditions.
The prostaglandins PGE2, PGF2 alpha and PGD2 as products from arachidonic acid where quantified by means of method 2, and the sum was related as "total prostaglandin" to 100%. The quantity of "total prostaglandin" formed without the addition of a stimulator was set at f=1; the quantity formed after stimulation was related thereto. f=2 or f=3 therefore means twice or three times the stimulation under the conditions of method 2. The stability of the sample was investigated by means of method 1 (right-hand column). […] Values greater than 25-28% therefore represent a stabilization, and values smaller than 25-28% represent a destabilization. Example No. 1 was carried out without a stimulator. […] The substances test with respect to stabilization (see Method 1 for quantities) were: A) aqueous solution without stabilizer addition, B) ethanolic solution without further addition, C) pyridine solution, D) with rutin, predissolved in dimethyl sulfoxide, dimethyl sulfoxide then stripped off, E) like B) with lecithin, ethanol stripped off, F) like A) with cytochrome c from horse heart (from Boehringer, Mannheim, Germany), G) like A) with methemoglobin (human) (from Sigman, Munich, Germany), H) like A) with bovine serum albumin (from Calbiochem, Frankfurt, Germany), J) like A) or B), but solvent stripped off, K) like J) with cytochrome c, L) like J) with hemoglobin (human) (from Behringwerke, Marburg, Germany), and M) like J) with human serum albumin (from Behringwerke, Marburg, Germany).
Turning to TyrTyrTyrOCH3 [Example 30], the “relative total prostaglandin f” value was 5.3.
Turning to TrpTrp [Example 24], the “relative total prostaglandin f” value was 11.7.

The data set is the same for the next values; noted with them: Table 1; share of total prostaglandin (=100%).
In turn, `CC(=O)NC(CS)C(=O)O` (stereo not drawn) [Example 37, NAcetylcysteine] registered a PGD2 % of 25%, a PGE2 % of 61% and a PGF2alpha % of 14%.
TyrTyrTyrOCH3 [Example 30] displayed a PGD2 % of 11%, a PGE2 % of 75% and a PGF2alpha % of 4%.
Turning to `Cc1cccc(O)c1` [Example 2, m-cresol, reference compound], the PGD2 % came to 2%, the PGE2 % is given as 98% and the PGF2alpha % was determined as 0%.
As to TrpTrp [Example 24], the PGD2 % is on record as 23%, the PGE2 % is on record as 75% and the PGF2alpha % was 2%.

The data set is the same for the next values; noted with them: Table 2; share of total prostaglandin.
Regarding `Oc1cc(O)c2c(c1)OC(c1ccc(O)c(O)c1)C(O)C2` (stereo not drawn) [Example 58, Catechin], the PGD2 % is recorded as 12%, the PGE2 % is 70% and the PGF2alpha % is on record as 18%.
For `C[C@@H]1O[C@@H](OC[C@H]2O[C@@H](Oc3c(-c4ccc(O)c(O)c4)oc4cc(O)cc(O)c4c3=O)[C@H](O)[C@@H](O)[C@@H]2O)[C@H](O)[C@H](O)[C@H]1O` [Example 52, Rutin], in that order: 18%, 76% and 6%.

Still in this data set, the particulars now being: seminal vesicle enzyme, 10 min, pH 8.
As for `C[C@@H]1O[C@@H](OC[C@H]2O[C@@H](Oc3c(-c4ccc(O)c(O)c4)oc4cc(O)cc(O)c4c3=O)[C@H](O)[C@@H](O)[C@@H]2O)[C@H](O)[C@H](O)[C@H]1O` [Example 52, Rutin], the “relative total prostaglandin f” value was 6.

Test system in another data set: not given
Conditions: not given
Here is the method: Method 1: Investigation of the Stability of Unsaturated Fatty Acids in the Formulations
The stabilizing action of substances on polyunsaturated fatty acids was investigated as follows:
Test A for Water-Soluble Substances:
0.125 mg of unsaturated fatty acid or Na salt (see tables) (sodium arachidonate, from Sigma, Munich, Germany) is dissolved in 0.05 ml of water. 0.2 ml of aqueous solution which contains 2 mg of stabilizer and can additionally contain 2 mg of stimulator is mixed in (cf. Table 1), 0.1 ml is then taken out immediately, extracted and analysed (see below). Further processing according to modification 1 or 2.
Modification 1 for Aqueous Solutions
After 24 hours incubation at 37° C., 0.1 ml is again taken, extracted and analysed (see below).
Modification 2 for Solid Mixtures (Lyophilisates)
The test solution is lyophilized, the lyophilisate is incubated for 24 hours at 37° C. and then dissolved again in the previous quantity of water, and 0.1 ml is taken, extracted and analysed (see below).
Test B for Water-Insoluble Substances:
0.125 mg of unsaturated fatty acid (arachidonic acid, 5,8,11,14,17-eicosapentaenoic acid or 8,11,14-eicosatrienoic acid, from Sigma, Munich) is dissolved in 0.05 ml of ethanol or dimethyl sulfoxide. 0.2 ml of ethanol (or dimethyl sulfoxide) which contains 2 mg of stabilizer and can additionally contain 2 mg of the stimulator (cf. Table 1) is added thereto, and 0.1 ml is taken immediately and, as below, extracted and analysed. Further treatment according to modification 1 or 2.
Modification 1 for Solutions
After 24 hours' incubation at 37° C., 0.1 ml is again taken, mixed with 0.1 ml of water, extracted and analysed.
Modification 2 for Solid Mixtures
The remaining solution is freed of solvent, incubated for 24 hours at 37° C. and then dissolved again in 0.15 ml of solvent, and 0.1 ml is taken, mixed with 0.1 ml of water, extracted and analysed.
0.05 ml of 1.2M aqueous citric acid solution is added to the samples obtained, and the samples are extracted with twice 0.5 ml of ethyl acetate, the ethyl acetate is removed from the combined extracts and the residue is dissolved in 0.8 ml of methanol and analysed by means of high-pressure liquid chromatography (HPLC) (Rad Pak C-18 column, 100×8 mm, from Waters, Konigstein, Germany, 1.5 ml/minute, solvent 800 ml of methanol, 200 ml of water and 0.1 ml of glacial acetic acid). The separation is monitored with a commercially available UV detector at 206 nm.
The prostaglandins PGE2, PGF2 alpha and PGD2 as products from arachidonic acid where quantified by means of method 2, and the sum was related as "total prostaglandin" to 100%. The quantity of "total prostaglandin" formed without the addition of a stimulator was set at f=1; the quantity formed after stimulation was related thereto. f=2 or f=3 therefore means twice or three times the stimulation under the conditions of method 2. The stability of the sample was investigated by means of method 1 (right-hand column). […] Values greater than 25-28% therefore represent a stabilization, and values smaller than 25-28% represent a destabilization. Example No. 1 was carried out without a stimulator.
For the compound rhamnoglucose [reference compound], the “stabilization of aqueous mixtures of unsaturated fatty acid and stimulators” value was “not stabilizing”.
As to `OC[C@@H](O)[C@@H](O)[C@H](O)[C@@H](O)CO` [sorbitol, reference compound], the “stabilization of aqueous mixtures of unsaturated fatty acid and stimulators” value is reported as “not stabilizing”.
On the same count and under the same terms, for `O=C[C@H](O)[C@@H](O)[C@H](O)[C@H](O)CO` [glucose, reference compound] the value was “not stabilizing”.

The data set is the same for the next values; noted with them: 1440 min.
Take `OC[C@H]1O[C@@H]2O[C@H]3[C@H](O)[C@@H](O)[C@@H](O[C@H]4[C@H](O)[C@@H](O)[C@@H](O[C@H]5[C@H](O)[C@@H](O)[C@@H](O[C@H]6[C@H](O)[C@@H](O)[C@@H](O[C@H]7[C@H](O)[C@@H](O)[C@@H](O[C@H]8[C@H](O)[C@@H](O)[C@@H](O[C@H]9[C@H](O)[C@@H](O)[C@@H](O[C@H]1[C@H](O)[C@H]2O)O[C@@H]9CO)O[C@@H]8CO)O[C@@H]7CO)O[C@@H]6CO)O[C@@H]5CO)O[C@@H]4CO)O[C@@H]3CO` [Example 64, gamma-Dextrin (Cyclooctaamylose)]: the “Stabilization (% remaining unsaturated fatty acid by Method 1)” value came to 75%.
On to `OC[C@H]1O[C@@H]2O[C@H]3[C@H](O)[C@@H](O)[C@@H](O[C@H]4[C@H](O)[C@@H](O)[C@@H](O[C@H]5[C@H](O)[C@@H](O)[C@@H](O[C@H]6[C@H](O)[C@@H](O)[C@@H](O[C@H]7[C@H](O)[C@@H](O)[C@@H](O[C@H]1[C@H](O)[C@H]2O)O[C@@H]7CO)O[C@@H]6CO)O[C@@H]5CO)O[C@@H]4CO)O[C@@H]3CO` [Example 62, alpha-Dextrin (Cyclohexaamylose)], for which the “Stabilization (% remaining unsaturated fatty acid by Method 1)” value stood at 60%.

The data set is the same for the next values; noted with them: A) aqueous solution without stabilizer addition; 24 h 37° C.
As for `CCCCC/C=C\C/C=C\C/C=C\C/C=C\CCCC(=O)O` [arachidonic acid], the “Stability (% of remaining arachidonic acid by Method 1)” value is recorded as 25-28%.

Still in this data set, the particulars now being: aqueous medium; result in words.
In the case of `N[C@@H](Cc1c[nH]c2ccc(O)cc12)C(=O)O` [5-hydroxytryptophan, reference compound], the “undesired decomposition / byproducts of polyunsaturated fatty acid (arachidonic acid) with added stimulator” value (shortened to “undesired decomposition / byproducts”) is “considerably accelerated”.
Take `NC[C@H](O)c1ccc(O)c(O)c1` [noradrenalin, reference compound]: the “undesired decomposition / byproducts” value is recorded as “considerably accelerated”.
For `Oc1ccc(O)cc1` [hydroquinone, reference compound], the “undesired decomposition / byproducts” value was “markedly greater quantity; also recorded: considerably accelerated”.
Regarding `N[C@@H](Cc1ccc(O)cc1)C(=O)O` [tyrosine], the “undesired decomposition / byproducts” value was “completely stable”.
On to `CNCC(O)c1ccc(O)c(O)c1` (stereo not drawn) [adrenalin, reference compound], for which the “undesired decomposition / byproducts” value is recorded as “considerably accelerated”.
The same measure, in the same setting: for `N[C@@H](Cc1c[nH]c2ccccc12)C(=O)O` [tryptophan, reference compound] the value was “considerably accelerated”.

The data set is the same for the next values; noted with them: fatty acid with stimulator; result in words.
Regarding polyethylene glycol, the “effect of solvent used instead of water on formation of undesired byproducts” value (“effect of solvent used instead of water” below) is reported as “do not arise”.
On the same count and under the same terms, in the case of `CCC(C)O` (stereo not drawn) [Example 2-butanol, 2-butanol] it was “additional destabilizing effect”.
The same measure, in the same setting: in the case of `CCO` [ethanol] it was “do not arise”.
`C[S+](C)[O-]` [dimethyl sulfoxide]: the “effect of solvent used instead of water” value was “do not arise”.
Take `OCC(O)CO` [glycerol]: the “effect of solvent used instead of water” value was “do not arise”.
On the same count and under the same terms, in the case of `c1ccncc1` [pyridine] it was “additional destabilizing effect”.
